Earlier results, collected in PubChem BioAssay AID1259409 (Chemical Carcinogenesis Research Information System (CCRIS), 2018).

Tested on: rodent chemically induced tumor inhibition, incidence and multiplicity
Test: CCRIS tumor inhibitor studies
Details: Promoter: NONE USED

Structure (SMILES) | tumour outcome (control, treated, inhibition, significance) (Carcinogen: BENZO[A]PYRENE, 50-32-8, Dose [Inhibitor]: 4 UG IN 0.1 ML ACETONE 3/WK ADMINISTERED SIMULTANEOUSLY WITH CARCINOGEN FOR DURATION OF STUDY (STUDY DURATION: 368 D), Route [Inhibitor]: DERMAL, Species: MOUSE, Strain/Sex: ICR/FEMALE, Target Tissue: Type of Lesion: SKIN: PAPILLOMA, Dose [Carcinogen]: 5 UG IN 0.1 ML ACETONE 3/WK FOR DURATION OF STUDY) | tumour outcome (control, treated, inhibition, significance) (Carcinogen: BENZO[A]PYRENE, 50-32-8, Dose [Inhibitor]: 4 UG IN 0.1 ML ACETONE 3/WK ADMINISTERED SIMULTANEOUSLY WITH CARCINOGEN FOR DURATION OF STUDY (STUDY DURATION: 368 D), Route [Inhibitor]: DERMAL, Species: MOUSE, Strain/Sex: ICR/FEMALE, Target Tissue: Type of Lesion: SKIN: SQUAMOUS CARCINOMA, Dose [Carcinogen]: 5 UG IN 0.1 ML ACETONE 3/WK FOR DURATION OF STUDY) | tumour outcome (control, treated, inhibition, significance) (Carcinogen: BENZO[A]PYRENE, 50-32-8, Dose [Inhibitor]: 12 UG IN 0.1 ML ACETONE 3/WK ADMINISTERED SIMULTANEOUSLY WITH CARCINOGEN FOR DURATION OF STUDY (STUDY DURATION: 368 D), Route [Inhibitor]: DERMAL, Species: MOUSE, Strain/Sex: ICR/FEMALE, Target Tissue: Type of Lesion: SKIN: PAPILLOMA, Dose [Carcinogen]: 5 UG IN 0.1 ML ACETONE 3/WK FOR DURATION OF STUDY) | tumour outcome (control, treated, inhibition, significance) (Carcinogen: BENZO[A]PYRENE, 50-32-8, Dose [Inhibitor]: 12 UG IN 0.1 ML ACETONE 3/WK ADMINISTERED SIMULTANEOUSLY WITH CARCINOGEN FOR DURATION OF STUDY (STUDY DURATION: 368 D), Route [Inhibitor]: DERMAL, Species: MOUSE, Strain/Sex: ICR/FEMALE, Target Tissue: Type of Lesion: SKIN: SQUAMOUS CARCINOMA, Dose [Carcinogen]: 5 UG IN 0.1 ML ACETONE 3/WK FOR DURATION OF STUDY) | tumour outcome (control, treated, inhibition, significance) (Carcinogen: BENZO[A]PYRENE, 50-32-8, Dose [Inhibitor]: 40 UG IN 0.1 ML ACETONE 3/WK ADMINISTERED SIMULTANEOUSLY WITH CARCINOGEN FOR DURATION OF STUDY (STUDY DURATION: 440 D), Route [Inhibitor]: DERMAL, Species: MOUSE, Strain/Sex: ICR/FEMALE, Target Tissue: Type of Lesion: SKIN: PAPILLOMA, Dose [Carcinogen]: 5 UG IN 0.1 ML ACETONE 3/WK FOR DURATION OF STUDY) | tumour outcome (control, treated, inhibition, significance) (Carcinogen: BENZO[A]PYRENE, 50-32-8, Dose [Inhibitor]: 40 UG IN 0.1 ML ACETONE 3/WK ADMINISTERED SIMULTANEOUSLY WITH CARCINOGEN FOR DURATION OF STUDY (STUDY DURATION: 440 D), Route [Inhibitor]: DERMAL, Species: MOUSE, Strain/Sex: ICR/FEMALE, Target Tissue: Type of Lesion: SKIN: SQUAMOUS CARCINOMA, Dose [Carcinogen]: 5 UG IN 0.1 ML ACETONE 3/WK FOR DURATION OF STUDY) | tumour outcome (control, treated, inhibition, significance) (Carcinogen: AZOXYMETHANE, 25843-45-2, Dose [Inhibitor]: 0, 42 MG/KG BW IN 0.9% SALINE TWICE ON FIRST DAY THEN 0, 105 MG/KG 1/2 WK FOR DURATION OF STUDY (STUDY DURATION: 35 WK), Dose [Inhibitor]: 0, 42 MG/KG BW IN 0.9% SALINE TWICE ON FIRST DAY THEN 0, 105 MG/KG 1/2 WK FOR DURATION OF STUDY (STUDY DURATION: 35 WK), Route [Inhibitor]: INTRAPERITONEAL, Species: RAT, Strain/Sex: WISTAR/MALE, Target Tissue: Type of Lesion: COLON: TUMOR, Dose [Carcinogen]: 7.4 MG/KG BW IN 0.9% SALINE 1/WK FOR 10 WK) | tumour outcome (control, treated, inhibition, significance) (Carcinogen: N-METHYL-N'-NITRO-N-NITROSOGUANIDINE, 70-25-7, Dose [Inhibitor]: 0, 42 MG/KG 2/24 HR BEGINNING POST CARCINOGEN TREATMENT THEN 1 WK LATER 105 MG/KG 1/2 WK (STUDY DURATION: 52 WK), Route [Inhibitor]: INTRAPERITONEAL, Species: RAT, Strain/Sex: WISTAR/MALE, Target Tissue: Type of Lesion: STOMACH: ADENOCARCINOMA, Dose [Carcinogen]: 75 UG/ML IN DRINKING WATER FOR 25 WK)
c1cc2ccc3cccc4ccc(c1)c2c34 | 14/50 (28%), 12/50 (24%), 14%, not calculated | 10/50 (20%), 6/50 (12%), 40%, not calculated | 14/50 (28%), 26/50 (52%), -86%, not calculated | 10/50 (20%), 20/50 (40%), -100%, not calculated | 16/50 (32%), 35/50 (70%), -119%, not calculated | 12/50 (24%), 26/50 (52%), -117%, not calculated |  | 
NCCc1cc(O)c(O)cc1O |  |  |  |  |  |  | 14/20 (70%), 4/17 (24%), 66%, p<0.02 | 16/20 (80%), 9/20 (45%), 44%, p<0.05
